Substitutions are numbered along the chain they refer to. “Also recorded” adds a separate entry of the source.
Columns and labels:
MEG01 cells = assay: swell-activated currents in human MK cell line MEG01; type: cell-based; details: WT MEG01 cells, hypotonic solution (HYPO, 210 mOsm), 10 μM
Method: FIG. 29A-29C depicts how the human MK cell line, MEG01, had robust, SN-4XX-inhibited, swell-activated currents. FIG. 29A depicts current density over time in response to swelling with hypotonic solution (HYPO, 210 mOsm), and inhibition by 10 μM SN401 in WT MEG01 cells. FIG. 29B depicts the current-voltage relationship in WT MEG01 cells in response to HYPO and inhibition by 10 μM SN401. FIG. 29C depicts the current-voltage relationship in WT MEG01 cells in response to HYPO and inhibition by 3 μM SN418c.

C57BL/6 mice = assay: tail wound thrombosis / tail bleeding assay; type: in vivo, mouse
Method: To determine if acute inhibition of LRRC8 channel activity affected platelet function in vivo, vehicle or the known LRRC8 channel inhibitor SN-401 (DCPIB) was administered to 25 to 30-week old C57BL/6 mice by IP injection, and in vivo thrombosis was quantified using an assay for tail wound thrombosis. Specifically, 20 minutes following IP injection with vehicle or 10 mg/kg SN-401, mouse tails were amputated 5 mm from the tail tip, placed in normal saline at 37° C. for 15 minutes, and the relative blood loss during that period was quantified by estimating the hemoglobin concentration in the normal saline by measuring light absorbance at 550 nm.
FIG. 24 depicts how SN-401 treatment increases mouse tail bleeding. Mice were pretreated with Vehicle or SN401 (10 mg/kg i.p×1) and tail bleeding quantified after 15 minutes by measuring absorbance of hemoglobin at 550 nm. * p<0.05.
To determine if acute inhibition of LRRC8 channel activity affected platelet function in vivo, vehicle or the known LRRC8 channel inhibitor SN-401 (DCPIB) was administered to 25 to 30-week old C57BL6 mice by IP injection, and in vivo thrombosis was quantified using an assay for tail wound thrombosis. […]

human platelets = assay: platelet adhesion to collagen in microfluidic device, human whole blood; type: cell-based; details: 10 μM, collagen-coated microfluidic chamber, vs vehicle (DMSO)
Method: Human blood from 4 donors was collected into heparin anticoagulant, pooled and incubated with the fluorescently label DiOC6 (3,39-dihexyloxacarbocyanine iodide; Invitrogen) and either 10 μM SN-401 (DCPIB) or vehicle (DMSO) for 10 minutes. The whole blood was perfused through a polydimethysiloxane (PDMS) microfluidic device plasma bonded to a glass slide patterned with bovine type 1 collagen at a constant upstream pressure for 5 minutes followed by PBS for 5 minutes. Platelet accumulation was captured using an Olympus IX83 inverted microscope and the surface area coverage of platelets quantified using ImageJ.
FIG. 23A-23B depict how SN-401 impairs human platelet adhesion under physiologic shear-flow conditions in collagen-coated microfluidic flow chambers. n=4 blood draws from 4 subjects on 2 separate days. FIG. 23A depicts the percentage of surface area covered by adherent platelets over time in human whole-blood treated with vehicle or 10 μM SN-401. p=0.1 for 2-way Anova. FIG. 23B depicts the area under the curve (AUC) calculated from FIG. 23A for vehicle and SN-401. p=0.1 for t-test.

LRRC8 channel [1] = biological target: T1, LRRC8 channel (Homo sapiens, UniProt Q8IWT6); assay: swell-activated currents recorded from HEK cells; type: cell-based
T1 construct: endogenous in cells; host or cells: HEK cells
T1 sequence (Q8IWT6 1-810): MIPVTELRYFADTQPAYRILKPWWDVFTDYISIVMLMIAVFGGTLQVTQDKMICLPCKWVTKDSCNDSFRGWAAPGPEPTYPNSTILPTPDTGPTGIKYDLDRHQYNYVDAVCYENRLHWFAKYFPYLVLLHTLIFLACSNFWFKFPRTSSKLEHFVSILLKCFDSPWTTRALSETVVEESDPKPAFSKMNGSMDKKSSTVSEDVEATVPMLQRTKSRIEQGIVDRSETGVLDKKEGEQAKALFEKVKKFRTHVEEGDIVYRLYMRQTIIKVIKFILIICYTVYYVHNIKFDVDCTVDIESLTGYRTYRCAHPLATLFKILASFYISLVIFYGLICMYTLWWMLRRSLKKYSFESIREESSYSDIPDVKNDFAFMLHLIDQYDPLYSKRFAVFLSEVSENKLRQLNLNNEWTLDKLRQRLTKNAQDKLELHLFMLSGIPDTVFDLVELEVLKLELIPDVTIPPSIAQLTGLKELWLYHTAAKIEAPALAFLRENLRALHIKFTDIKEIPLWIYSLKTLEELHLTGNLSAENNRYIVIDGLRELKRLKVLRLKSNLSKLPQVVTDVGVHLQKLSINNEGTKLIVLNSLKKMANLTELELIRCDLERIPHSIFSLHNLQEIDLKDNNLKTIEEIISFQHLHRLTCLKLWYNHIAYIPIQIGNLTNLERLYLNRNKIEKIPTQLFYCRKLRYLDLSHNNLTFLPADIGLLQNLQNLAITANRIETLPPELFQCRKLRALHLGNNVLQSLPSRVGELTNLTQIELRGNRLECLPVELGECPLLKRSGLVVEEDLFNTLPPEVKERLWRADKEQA
Source text: FIG. 25A-25D depict how congeners SN-418 and SN-418C are potent inhibitors of swell-activated currents recorded from HEK cells. FIG. 25A depicts the chemical structure of SN-418. FIG. 25B depicts the chemical structure of SN-418C. FIG. 25C depicts currents in the presence of varying concentrations of SN-418 and SN-401 normalized to the currents activated in hypotonic solution alone. […] FIG. 25D depicts currents in the presence of varying concentrations of SN-418C and SN-401 normalized to the currents activated in hypotonic solution alone.
Examples of these are SN-418 and SN-418C (FIG. 25A&25B), which include modification in the alkyl chain+/−cyclopropyl group to increase LRRC8 channel inhibition ˜10-fold over SN-401 (FIG. 25C&25D). SN-418C was then tested for antiplatelet activity in vitro.

LRRC8 channel [2] = biological target: T2, LRRC8 channel (Mus musculus, UniProt Q80WG5); assay: perforated patch-clamp of ICl,SWELL in freshly isolated murine megakaryocytes; type: cell-based; design: inhibition of ICI,SWELL currents: dose or concentration left out as unconfirmed; details: for inhibition of swell-activated current: murine MK, hypotonic solution (HYPO, 205 mOsm), 10 μM
T2 construct: endogenous in cells; host or cells: freshly isolated murine megakaryocytes (WT = LRRC8A fl/fl littermate controls)
T2 sequence (Q80WG5 1-810): T1 sequence (Q8IWT6 1-810) with P75S, G76S, I86V, I276A, A591V, I715V, T722A, N792S
Source text: FIG. 17A depicts a murine MK perforated patch-clamp. FIG. […] FIG. 17C depicts the current-voltage relationship in WT MK. FIG. 17D depicts the current-voltage relationship in cKO MK. FIG. 17E depicts mean outward and inward currents at +100 mV and −100 mV respectively, in WT, WT+SN401, and cKO MK. * p<0.05;** p<0.01.
To validate the biology implied by the human genetic studies, megakaryocyte (MK)-specific LRRC8A conditional knockout (cKO) mice were generated by crossing our LRRC8A^fl/fl mouse (SWELL1^fl/fl)^35-31 with the platelet factor4-driven Cre recombinase mouse (Pf4-Cre) to generate LRRC8A^fl/fl;Pf4-cre+/− (cKO) and littermate control LRRC8A^fl/fl mice (WT). Complete deletion of LRRC8A protein from cKO mouse platelets was confirmed while maintaining expression of the platelet marker b3 integrin (FIG. 16). To confirm that LRRC8 proteins form functional VRAC/ICI,SWELL channels in platelets, ICI,SWELL was measured in freshly isolated murine MK using the perforated patch configuration of the patch-clamp technique (FIG. 17A). […] This hypotonically-activated, swell-activated current is entirely abolished in cKO MKs (FIG. 17C-17D), confirming the SN-401-inhibited current in murine MKs to be entirely LRRC8A mediated.

CCCCC1(C2CCCC2)Cc2cc(OCCCC(=O)O)c(Cl)c(Cl)c2C1=O (stereo not drawn) [SN-401, 4-((2-Butyl-6,7-dichloro-2-cyclopentyl-1-oxo-2,3-dihydro-1H-inden-5-yl)oxy)butanoic acid]
inhibition of swell-activated (ICI,SWELL) current (MEG01 cells): completely inhibited
inhibition of swell-activated (ICI,SWELL) current (MEG01 cells; listed as SN401): inhibition
mean amount of tail blood loss relative to vehicle (C57BL/6 mice; 10 mg/kg IP, 20 minutes before tail amputation, 15 minutes, absorbance at 550 nm): 4 fold
tail bleeding (C57BL/6 mice; 10 mg/kg i.p. x1, hemoglobin absorbance at 550 nm after 15 minutes): increases
adhesion of human platelets to collagen (surface area coverage) (human platelets): significantly reduced; also recorded: significantly inhibited; also recorded: impairs
IC50 (LRRC8 channel [1]): 4 µM
inhibition of ICI,SWELL currents (LRRC8 channel [2]; WT MK, hypotonic swelling): fully inhibited
inhibition of swell-activated current (LRRC8 channel [2]): robust inhibition
inhibition of swell-activated current (LRRC8 channel [2]; listed as SN401): inhibition
